Nine molecules from BindingDB's records for patent US10696682 (G1 Therapeutics, 2020) can be followed below.

Broadly, the IC50 is the concentration that inhibits the measured activity by half.

For this assay, the target named is Cyclin-dependent kinase 2/G1/S-specific cyclin-E1 (Homo sapiens, UniProt P24941+P24864). Nature of the assay: Biological Activity Assay. As to the method: Kinase enzymatic reactions were performed in 384-well microplates using a 12-channel Caliper LabChip instrument as a detection device. […] As substrate and product are separated, two peaks of fluorescence are observed. Change in the relative fluorescence intensity of the substrate and product peaks is the parameter measured, reflecting enzyme activity. In the presence of an inhibitor, the ratio between product and substrate is altered. […] Potential inhibitor compounds (as HCl salts) were tested using 12-point dose response curves in single point at the Km for ATP.

`CN1CCN2C(=CC3C=NC(Nc4ccc(N5CCNCC5)cn4)=NC32)C1=O` (centres undefined) [US10696682, Compound 5]: the IC50 is > 100 µM.
The result for `CC(C)C1CNC(=O)C2=CC3C=NC(Nc4ccc(N5CCN(C)CC5)cn4)=NC3N21` (centres undefined) [US10696682, Compound 7] reads > 100 µM; that for `CC(C)[C@H]1CN(C)C(=O)C2=CC3C=NC(Nc4ccc(N5CCNCC5)cn4)=NC3N21` (some centres undefined) [US10696682, Compound 11], > 100 µM.
With `CC(C)C[C@H]1CN(C)C(=O)C2=CC3C=NC(Nc4ccc(N5CCNCC5)cn4)=NC3N21` (some centres undefined) [US10696682, Compound 15] the figure was > 100 µM.
With `CCC(C)[C@H]1CN(C)C(=O)C2=CC3C=NC(Nc4ccc(N5CCN(C)CC5)cn4)=NC3N21` (some centres undefined) [US10696682, Compound 18] the figure was > 100 µM; with `CCC(C)[C@H]1CN(C)C(=O)C2=CC3C=NC(Nc4ccc(N5CCNCC5)cn4)=NC3N21` (some centres undefined) [US10696682, Compound 19], > 100 µM.
For `CN1CC2(CCCC2)N2C(=CC3C=NC(Nc4ccc(N5CCNCC5)cn4)=NC32)C1=O` (centres undefined) [US10696682, Compound 31], the IC50 was > 100 µM.
The result for `CC(C)CC1CN(C)C(=O)C2=CC3C=NC(Nc4ccc(N5CCNCC5)cn4)=NC3N21` (centres undefined) [US10696682, Compound 47] reads > 100 µM.
The result for `CN1CCN(c2ccc(NC3=NC4C(C=N3)C=C3C(=O)N[C@H]5CCC[C@@H]5N34)nc2)CC1` (some centres undefined) [US10696682, Compound 48] reads > 100 µM.
